Source: the NIST ThermoML archive (doi:10.1016/j.jct.2009.07.020)

Legend:
[1] = xn = mol fraction of the nth substance listed; details: 101 kPa, Liquid; for speed of sound: Sing-around technique in a fixed-path interferometer; for mass density: Vibrating tube method
[2] = 293.15 K, 101.33 kPa, Liquid; for speed of sound: Sing-around technique in a fixed-path interferometer; for mass density: Vibrating tube method

ClCCCl [1,2-dichloroethane] + CCCCCCCCCCO
[1]
Details | mass density, 293.15 K [kg/m3] | mass density, 313.15 K [kg/m3] | speed of sound, 293.15 K [m/s] | speed of sound, 313.15 K [m/s]
x1 = 0.0692 | 841.579 | 827.391 | 1382.8 | 1314.9
x1 = 0.1136 | 849.567 | 835.077 | 1373.9 | 1305.7
x1 = 0.2034 | 867.401 | 852.221 | 1355.3 | 1287.4
x1 = 0.2938 | 887.762 | 871.824 | 1335.6 | 1267.8
x1 = 0.3645 | 905.827 | 889.228 | 1319.7 | 1251.3
x1 = 0.507 | 949.509 | 931.327 | 1287.5 | 1217.8
x1 = 0.6043 | 986.214 | 966.695 | 1265.4 | 1195.1
x1 = 0.699 | 1029.23 | 1008.07 | 1244.6 | 1174.3
x1 = 0.7455 | 1053.66 | 1031.55 | 1235.1 | 1164.8
x1 = 0.7816 | 1074.54 | 1051.57 | 1228.3 | 1157.8
x1 = 0.8142 | 1094.99 | 1071.24 | 1222.5 | 1151.9
x1 = 0.8429 | 1114.4 | 1089.86 | 1218.1 | 1147.4
x1 = 0.9034 | 1160.56 | 1134.21 | 1211.6 | 1140.5
x1 = 0.9579 | 1209.39 | 1181.34 | 1210.4 | 1136.8
x1 = 1 | 1252.74 | 1223.38 | 1212.8 | 1136

CCCCCCCCCCO [decan-1-ol] + ClC(Cl)=C(Cl)Cl
[1], x2 = 0
Details | mass density [kg/m3] | speed of sound [m/s]
293.15 K | 829.991 | 1396.4
313.15 K | 816.264 | 1328.7

ClCCCl [1,2-dichloroethane]
[2]
Details | mass density [kg/m3] | speed of sound [m/s]
– | 1252.74 | 1212.8

BrCCBr [1,2-dibromoethane]
[2]
Details | mass density [kg/m3] | speed of sound [m/s]
– | 2179.6 | 1007

BrCCBr [1,2-dibromoethane] + CCCCCCCCCCO
[1]
Details | mass density, 293.15 K [kg/m3] | mass density, 313.15 K [kg/m3] | speed of sound, 293.15 K [m/s] | speed of sound, 313.15 K [m/s]
x1 = 0.0713 | 873.696 | 859.289 | 1363.1 | 1296.4
x1 = 0.1171 | 903.742 | 888.874 | 1341.8 | 1275.4
x1 = 0.1704 | 940.915 | 925.398 | 1317.2 | 1251.8
x1 = 0.2858 | 1030.69 | 1013.6 | 1266 | 1202.9
x1 = 0.3911 | 1125.7 | 1106.72 | 1218.3 | 1157.2
x1 = 0.51 | 1252.15 | 1230.3 | 1167.7 | 1108.9
x1 = 0.543 | 1291.44 | 1268.7 | 1153.4 | 1095
x1 = 0.5903 | 1351.8 | 1327.54 | 1134.1 | 1076.8
x1 = 0.6875 | 1492.47 | 1464.54 | 1095.3 | 1040.5
x1 = 0.7289 | 1560.17 | 1530.45 | 1080 | 1025.9
x1 = 0.7873 | 1665.23 | 1632.9 | 1059.7 | 1006.6
x1 = 0.8411 | 1773.36 | 1738.48 | 1042.2 | 990.48
x1 = 0.9006 | 1908.2 | 1870.5 | 1025.5 | 975.34
x1 = 0.9495 | 2033.54 | 1993.5 | 1015.6 | 965.65
x1 = 1 | 2179.6 | 2137.7 | 1007 | 955.97
